Measurements published in patent US12029716B2, “Derivatives of korormicin useful as antibiotics” (Viotika Life Sciences Inc., priority 2015, dated 2024).
pIC50, pKi: −log10 of the molar value. “And” between values parts separate entries of the source, which are not always exact repeats. Equal entries are not always repeated. Where two headings read alike, the source gives them in different places.

Experiments:
physchem = assay type: physicochemical; details: organic solvent or mixture
Chlamydia trachomatis = test: C. trachomatis infection of HeLa cells (chlamydial inclusions, immunocytochemistry); assay type: cell-based; details: for pIC50 / IC50: Chlamydia trachomatis, HeLa
Method: Chlamydia trachomatis (C. trachomatis) propagation and treatment were carried out as follows. C. trachomatis was propagated in HeLa cells. The titer of C. trachomatis was determined in cyclohexamide-treated HeLa cells, and concentrations used were expressed as inclusion forming units (IFU) per mL.
Assessment of the level of infection was determined as follows. HeLa cells were seeded on glass coverslips in 24-well plates at 3×10^4 cells/well and inoculated with C. trachomatis and then treated with antibiotic (or other compounds of interest). After 48 hours, the infected cells were fixed with 100% methanol and then incubated with anti-Chlamydia monoclonal antibody. Inclusion bodies were visualized by staining with FITC-conjugated secondary antibody and DAPI as counterstaining. The samples were examined by a fluorescence microscopy. Number of inclusions was calculated per 100 cells.
Assessment of antichlamydial activity of Korormicin (Scheme shown in FIG. 1) and PEG-2 (Scheme shown in FIG. 2) were performed as follows. Cells were infected with C. trachomatis and treated with different concentrations of antibiotic of choice. After 48 h of C. trachomatis was collected (P1) and used to infect fresh cells. Subsequent collections of C. trachomatis were used to obtain P2, P3, P4 and P5 stocks of C. trachomatis. Dilution of C. trachomatis used to infect cells after treatment with PEG-2 had to be minimized in order to visualize inclusions. Last passage collection of C. trachomatis (P5) of Korormicin treatment and all collected of passages of C. trachomatis treated with PEG-2 were used to establish infectivity of treated Chlamydia (Scheme shown in FIG. 3).
For MIC50 (Minimal Concentration of the antibiotic that inhibits formation of chlamydial inclusions on 50%) determination HeLa cells were grown in 24-well or 96 well plates overnight prior to chlamydial inoculation. Elementary bodies were applied to the cells in small volume of SPG (0.22 M sucrose, 8.6 mM Na2HPO4, 3.8 mM KH2PO4, 5 mM glutamic acid, 0.2 μm-filtered, pH 7.4) and after 2 hours of incubation unattached elementary bodies were removed and infected cells were treated with different concentration of antibiotics in Dulbecco's modified Eagle's medium (DMEM, Invitrogen) with 5% fetal bovine serum (FBS, Invitrogen) in the presence of cycloheximide (1.0 μg/ml). After 42 h inclusions were visualized by immunocytochemistry.
To determent chlamydicidal effect of Korormicin (Scheme 1) and PEG-2 (Scheme 2) Hela cells were infected with C. trachomatis and treated with different concentrations of antibiotics. After 48 h of C. trachomatis was collected (P1) and used to infect fresh cells. Subsequent collections of C. trachomatis were used to obtain P2, P3, P4 and P5 stocks of C. trachomatis. Dilution of C. trachomatis used to infect cells after treatment with PEG-2 had to be minimized in order to visualize inclusions. (See Scheme 2 below). Last passage collection of C. trachomatis (P5) of Korormicin treatment and all collected of passages of C. trachomatis treated with PEG-2 were used to establish infectivity of treated C. trachomatis. Minimal chlamydicidal concentration (MCC2) for Korormicin, PEG-2 and PEG-2S was calculated after 2 passages of infection with treatment and reflect inhibition of infection for more than 90%. In all experiments inclusions were visualized by immunocytochemistry.
Cells were seeded on glass coverslips in 24-well plates (2-4×10^4 cells/well) or on glass-bottom 96 well plates (10^4 cells/well), and after overnight inoculated with C. trachomatis. After 42 hours, the infected cells were fixed with 90% acetone (or 100% methanol in case of 96 well plates) and then incubated with anti-Chlamydia antibody (Thermo Fisher Scientific). Alexa Fluor 488-conjugated anti-rabbit IgG (Molecular Probes) was used as secondary antibody. DAPI staining solution (300 nM) was added to the coverslips to identify nuclei. […]

HeLa cell line = test: Cell toxicity assay, HeLa cells; assay type: cell-based, human
Method: (§1) Cell Toxicity Assay was performed as follows. HeLa, HEK293 and primary VSM cells were seeded at 5×10^3 cells/well in 96-well plates and incubated with Korormicin, PEG-2 or homoserine lactones in DMEM containing 1% fetal bovine serum (FBS; Invitrogen Corp.). After 48 hours, the number of living cells was determined by a colorimetric enzyme assay, based on a cytoplasmic enzyme activity present in viable cells.

Na^+-NQR [1] = molecular target: T1, Na^+-NQR (Vibrio cholerae serotype O1, UniProt Q9KPS2); test: Na+-NQR activity (dNADH oxidation) in sub-bacterial V. cholerae vesicles; assay type: biochemical
T1 construct: being placed in its native membrane; endogenous in cells; sub-bacterial membrane vesicles made by French press

Na^+-NQR [2] = details: cited from earlier work
[3] = test system: primary Vascular Smooth Muscle cells; test: Cell toxicity / proliferation assay, primary vascular smooth muscle cells; assay type: cell-based, human
Method: as §1
Cells were seeded at 5×10^3 cells/well in 96-well plates and incubated with C. trachomatis in DMEM containing 1% fetal bovine serum (FBS; Invitrogen Corp.). After 48 hours, the number of living cells was determined by a colorimetric enzyme assay (CellTiter 96 Cell Proliferation Assay; Promega Corporation, Madison, WI) based on a cytoplasmic enzyme activity present in viable cells. (Cory et al. Use of an aqueous soluble tetrazolium/formazan assay for cell growth assays in culture. Cancer Commun. 1991; 3:207-212). The absorbance of a formazan product in tissue culture media was measured at 500 nm using a microplate reader.

[4] = cell culture experimental model, read-out: IC50(Chl), half-maximal inhibition of the proliferation of Chlamydia trachomatis

Row | Compound | solubility (physchem) | pIC50 (Chlamydia trachomatis; [4]) | Cytotoxicity on HeLa cell line (HeLa cell line; 12.5 μM) | Cytotoxicity on HeLa cell line (HeLa cell line; 25 μM) | Cytotoxicity on HeLa cell line (HeLa cell line; 50 μM) | Cytotoxicity on HeLa cell line (HeLa cell line; 100 μM) | Anti-Chlamydial effect (Chlamydia trachomatis; 12.5 μM) | Anti-Chlamydial effect (Chlamydia trachomatis; 25 μM) | Anti-Chlamydial effect (Chlamydia trachomatis; 50 μM) | Anti-Chlamydial effect (Chlamydia trachomatis; 100 μM) | other results
1 | CCCCCCCCCCC[C@H](O)CC(=O)NC1=C[C@](C)(CC)OC1=O [PEG-11] | > 50 mM | 6.20 |  |  |  |  |  |  |  |  | 
2 | CC[C@@]1(C)C=C(NC(=O)C[C@@H](O)/C=C\I)C(=O)O1 [PEG-10] | > 50 mM | 6.17 |  |  |  |  |  |  |  |  | 
3 | CCCC(=O)N[C@H]1CCOC1=O [N-butyryl-L-Homoserine lactone] |  |  | no | no | no | no | no | no | No | no | 
4 | CCCCCC(=O)N[C@H]1CCOC1=O [N-hexanoyl-L-Homoserine lactone] |  |  | no | no | no | no | no | no | No | no | 
5 | CCCCCCCc1cc(O)c2ccccc2[n+]1[O-] [HQNO, 2-n-heptyl-4-hydroxyquinoline N-oxide] |  |  |  |  |  |  |  |  |  |  | pIC50 (Na^+-NQR [1]): 6.89; pKi (Na^+-NQR [2]; read-out: Ki for Na+-NQR): 6.52
6 | CCCCCCCCCC(=O)N[C@H]1CCOC1=O [N-decanoyl-L-Homoserine lactone] |  |  | no | no | no | no | no | no | no | no | 
7 | CC[C@@]1(C)C=C(NC(=O)C[C@@H](O)/C=C\C=C\CCCCCCN(C)C(=O)OC(C)(C)C)C(=O)O1 [PEG-6(Boc)] | > 50 mM | 6.02 |  |  |  |  |  |  |  |  | 
8 | CCCCCCCC[C@H]1O[C@H]1C/C=C/C=C\[C@H](O)CC(=O)NC1=C[C@](C)(CC)OC1=O [Korormicin, (3R,4Z,6E)-N-[(5S)-5-Ethyl-5-methyl-2-oxo-2,5-dihydro-3-furanyl]-3-hydroxy-8-[(2S,3R)-3-octyl-2-oxiranyl]-4,6-octadienamide] |  |  |  |  |  |  |  |  |  |  | lowering of the cell titer ([3]; VSMC proliferation, 5 to 15 μM): ~10%; toxicity to primary cells (in words) ([3]; primary Vascular Smooth Muscle cells): toxic; efficacy against C. trachomatis infection (in words) (Chlamydia trachomatis): effective; number of inclusions, of control (Chlamydia trachomatis; 5 consecutive treatments, 15 μM): 4.8%; IC50 (Chlamydia trachomatis; read-out: MIC501, Minimal Inhibitory Concentration after the treatment, first treatment): 8.28 µg/mL; pIC50 (Chlamydia trachomatis; read-out: MIC501, Minimal Inhibitory Concentration after the treatment, first treatment, 50% inhibition of inclusion formation): 4.74; IC50 (Chlamydia trachomatis; read-out: MIC502, Minimal Inhibitory Concentration after the second treatment, second treatment): 10 µM and 4.6 µg/mL; concentration effective against C. trachomatis (Chlamydia trachomatis; cell culture models): 10 to 20 µM; number of chlamydial inclusions, of control (Chlamydia trachomatis; five consecutive treatments, 20 μM): less than 2%; pKi (Na^+-NQR [2]; isolated Na+-NQR, listed as korormicin, read-out: inhibitor constant (Ki) of quinone reduction by Na+-NQR): ~10.10; pKi (Na^+-NQR [2]; isolated Na+-NQR, read-out: inhibitor constant (Ki) of quinone reduction by Na+-NQR): 10.09; pKi (Na^+-NQR [2]; preparations of isolated enzyme, read-out: Ki): ~10.10
9 | CCCCCCC/C=C/C=C\CCC(=O)NC1=C[C@](C)(CC)OC1=O [PEG-14] | > 50 mM | 5.92 |  |  |  |  |  |  |  |  | 
10 | CCCCCCCCCC(=O)CC(=O)N[C@H]1CCOC1=O [N-3-oxo-dodecanoyl-L-Homoserine lactone] |  |  | yes | yes | yes | yes |  |  |  |  | toxicity to human cells (in words) (HeLa cell line; HeLa): highly toxic
